For assay [1], the system named is SREBP-1c. Nature of the assay: SREBP-1c expression under high-glucose/high-insulin exposure, HepG2 (western blot). As to conditions: 30 mM glucose, 200 nM insulin 24 hours, 1-3 μM ligand. The assay is classed as cell-based, human. As to the method: A 6-well plate was inoculated with HepG2 (ATCC, US), as a human hepatocyte line, and cultured until confluence in a DMEM medium containing 1% penicillin-streptomycin (Hyclone, US) and 10% fetal bovine serum (Hyclone, US) in a 5% CO2 incubator at 37° C. The medium containing 10% fetal bovine serum of the hepatocyte line grown to confluence was replaced by a medium not containing FBS. The cell line was additionally cultured for 18 hours and used as a sample for an experiment.
(§1) Sodium dodecyl sulfate-polyacrylamide gel electrophoresis (SDS-PAGE) was carried out by means of a gel electrophoresis device (Mighty Small SE 250, Hoefer Scientific Instruments, San Francisco) according to a method by Laemmli (UK, Nature 227, 680-685, 1970). […] Whether total protein contents in samples are the same is determined using anti-β-actin and anti-LaminA/C antibodies. Changes in protein expression amounts were determined by measuring the intensities of chemiluminescence signals on the blot by means of densitometry. […] Each lane was calculated using AlphaEase™ version 5.5 software and background intensity was removed from the calculated values. […]

Assay [2] deals with SREBP-1c. Nature of the assay: SREBP-1c expression under high-glucose/high-insulin exposure, primary hepatocytes (western blot). The class given is cell-based, mouse. As to conditions: 0.3-10 μM ligand. As to the method: Liver cells were collected from male C57BL/6 mice (Central Lab. Animal Inc., Seoul) according to a method by Seglen et al. (Exp Cell Res., 82, pp 391-398, 1973). Each C57BL/6 mouse was anesthetized and then the abdomen thereof was incised. Subsequently, the hepatic portal vein was intubated and a gas mixture of 5% CO2 and 95% O2 was insufflated thereinto. A Ca^2+ and Mg^2+-free Hank's balanced salt solution at 37° C. was flowed into the tube to remove blood in the liver. Subsequently, a 0.1% collagenase type IV (Sigma, US) solution was flowed thereinto. The liver tissue was removed from the body, and then prepared into a hepatocyte suspension. The prepared hepatocyte suspension was centrifuged at 50×g for two minutes. […]
as §1

Consider `CCc1cnc(N2CCC(c3nc(COc4ccc(-n5cnnn5)cc4)cs3)CC2)nc1` [MBX2982, 4-((4-(1H-tetrazol-1-yl)phenoxy)methyl)-2-(1-(5-ethylpyrimidin-2-yl)piperidin-4-yl)thiazole], for which the “SREBP-1c and nuclear (active-type) SREBP-1C expression increased by high-glucose/high-insulin” value in the assay with SREBP-1c [1] and in the assay on SREBP-1c [2] was “completely inhibited” throughout.

Source of the values: patent US20190008864A1, “PHARMACEUTICAL COMPOSITION CONTAINING GPR119 LIGAND AS EFFECTIVE INGREDIENT FOR PREVENTING OR TREATING NON-ALCOHOLIC STEATOHEPATITIS” (PHARMEDIX.CO., LTD., priority 2014, published 2019).
